The target in this test is T1, Endoribonuclease toxin MazF (Escherichia coli (strain K12), UniProt P0AE70).
T1 sequence (P0AE70 whole entry): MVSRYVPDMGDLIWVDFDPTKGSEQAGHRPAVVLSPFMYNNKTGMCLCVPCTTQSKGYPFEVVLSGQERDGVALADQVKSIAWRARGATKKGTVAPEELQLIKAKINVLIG
Description: MazF toxin RNase activators, dose response, biochemical, fluorescence, single-stranded RNA substrate, uHTS hits (AID 588481).

What is called EC50 is the concentration that produces a half-maximal response.

Molecule `CCN1C(=O)C(C=NN=Cc2ccccc2)c2ccc(C3=NNC(=O)CC3)cc21` (configuration not stated) [benzaldehyde {[1-ethyl-2-oxo-6-(6-oxo-1,4,5,6-tetrahydro-3-pyridazinyl)-1,2-dihydro-3H-indol-3-ylidene]methyl}hydrazone] yielded a 50% effective concentration (EC50) of over 99 µM.
The value for `CCOC(=O)c1c(NC=C2C(=O)NC(=O)NC2=O)sc2c1CCC2` [ethyl 2-{[(1E)-(2,4,6-trioxohexahydropyrimidin-5-yl)methylene]amino}-5,6-dihydro-4H-cyclopenta[b]thiophene-3-carboxylate] was over 99 µM.

Source of the values: BindingDB's records for doi:10.7270/Q2Z31X54 (Burnham Center For Chemical Genomics, 2011).
